Bounds are passed on as bounds.

T1 sequence (P50750 whole entry): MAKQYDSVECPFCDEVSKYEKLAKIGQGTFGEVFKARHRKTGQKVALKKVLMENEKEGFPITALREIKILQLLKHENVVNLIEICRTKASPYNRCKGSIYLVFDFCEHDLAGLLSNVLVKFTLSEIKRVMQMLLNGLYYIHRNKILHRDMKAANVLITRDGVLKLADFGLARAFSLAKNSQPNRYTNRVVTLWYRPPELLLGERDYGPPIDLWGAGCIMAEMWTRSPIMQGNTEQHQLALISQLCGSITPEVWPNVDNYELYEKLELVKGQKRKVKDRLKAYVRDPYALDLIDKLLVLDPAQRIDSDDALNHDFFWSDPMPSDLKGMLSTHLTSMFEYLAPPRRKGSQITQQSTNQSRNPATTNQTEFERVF
T1 sequence (O60563 whole entry partner): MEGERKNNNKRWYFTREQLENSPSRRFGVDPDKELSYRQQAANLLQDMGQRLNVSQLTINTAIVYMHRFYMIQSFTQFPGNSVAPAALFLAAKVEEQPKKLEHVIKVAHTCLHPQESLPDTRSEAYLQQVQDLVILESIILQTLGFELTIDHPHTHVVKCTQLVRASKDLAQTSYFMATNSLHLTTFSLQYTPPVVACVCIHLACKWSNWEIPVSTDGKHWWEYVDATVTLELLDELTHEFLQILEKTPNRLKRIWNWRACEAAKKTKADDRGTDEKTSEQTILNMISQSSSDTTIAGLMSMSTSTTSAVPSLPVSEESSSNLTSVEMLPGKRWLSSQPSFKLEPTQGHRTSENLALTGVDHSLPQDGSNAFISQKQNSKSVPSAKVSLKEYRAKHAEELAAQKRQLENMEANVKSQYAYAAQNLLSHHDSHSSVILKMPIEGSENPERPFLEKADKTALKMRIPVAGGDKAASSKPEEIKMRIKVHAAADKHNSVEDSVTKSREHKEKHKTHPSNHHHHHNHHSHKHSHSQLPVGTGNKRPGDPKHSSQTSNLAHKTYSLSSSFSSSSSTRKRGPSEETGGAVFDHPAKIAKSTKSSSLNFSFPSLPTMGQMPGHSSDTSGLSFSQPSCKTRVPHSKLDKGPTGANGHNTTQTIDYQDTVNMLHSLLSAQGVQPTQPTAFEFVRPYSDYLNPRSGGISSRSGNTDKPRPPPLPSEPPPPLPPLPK

This test addresses T1, CDK9/CyclinT1 (Homo sapiens, UniProt P50750).
T1 construct: purchased ProQinase/Reaction Biology, USA #0371-0345-1
The experiment in a line: CDK9/T1 ADPGlo kinase assay. The format is biochemical. Conditions: CDK9/CyclinT1 6 nM, ATP 10 microM, PDKtide 40 microM, 120 min RT. The method, then: The testing compound was evaluated in 12 concentrations in a 1:3 dilution series, starting from 5microM as the highest concentration.
In a white 384 microplate (Greiner bio-one, Austria #784904,) with 2 microL of 3-fold concentrated CDK9/CyclinT1 (ProQinase/Reaction Biology, USA #0371-0345-1, LOT.: 012), final concentration (f.c.) 6 nM, in 1×kinase buffer, 2 microL of compound (3× fold concentrated in f.c. 1.66% DMSO/H2O) was added and incubated at Room Temperature (RT) for 10 min. Then 2 microL of Substrate/ATP-Mix (3×PDKtide f.c. 40 microM, SignalChem Biotech, Canada via Biozol, Eching, Germany #P10-58, LOT.: L2230-7 and 3×UltraPure ATP f.c. 10 microM (ADP Glo Kinase assay, Promega GmbH, Germany #V9102)) were added, mixed and incubated for 120 min at RT.
After incubation time, 5 microL of ADP Glo reagent (ready to use, ADP Glo Kinase assay, Promega GmbH, Germany #V9102) were added, mixed and incubated for 40 min at RT.
In the last step, 10 microL of ADP Glo Detection reagent (ready to use, ADP Glo Kinase assay, Promega GmbH, Germany #V9102) were added, mixed and incubated for 30 min at RT.
GloMax Discover GM3000 Reader (Promega GmbH, Germany 9700000249) was used for the readout.
The inhibitor concentration was plotted against the luminescence to determine the IC50 using XLFit 5.5 (IDBS, Guildford) to fit to a sigmoidal dose response curve with a variable slope.
Usually IC50 stands for the concentration at which inhibition is half-maximal. A lower IC50 goes with inhibition by little substance. On to `CCOc1cc(Nc2nc(-c3c(F)cccc3F)nc3ccnn23)ccc1N1CCN(C)CC1` [Example #8, 2-(2,6-difluorophenyl)-N-(3-ethoxy-4-(4-methylpiperazin-1-yl)phenyl)pyrazolo[1,5-a][1,3,5]triazin-4-amine], for which the IC50 is less than 1000 nM.

For `CCOc1cc(Nc2nc(-c3c(Cl)cccc3Cl)nc3ccnn23)ccc1N1CCN(C)CC1` [Example #12, 2-(2,6-dichlorophenyl)-N-(3-ethoxy-4-(4-methylpiperazin-1-yl)phenyl)pyrazolo[1,5-a][1,3,5]triazin-4-amine], the IC50 is less than 1000 nM.

Take `CCOc1cc(Nc2nc(-c3c(F)cccc3F)nc3ccnn23)ccc1C1=CCN(C)CC1` [Example #14, 2-(2,6-difluorophenyl)-N-(3-ethoxy-4-(1-methyl-1,2,3,6-tetrahydropyridin-4-yl)phenyl)pyrazolo[1,5-a][1,3,5]triazin-4-amine]: the half-inhibitory concentration (IC50) is less than 1000 nM.

Take `CCOc1cc(Nc2nc(-c3c(F)cccc3Cl)nc3ccnn23)ccc1C1=CCN(C)CC1` [Example #16, 2-(2-chloro-6-fluorophenyl)-N-(3-ethoxy-4-(1-methyl-1,2,3,6-tetrahydropyridin-4-yl)phenyl)pyrazolo[1,5-a][1,3,5]triazin-4-amine]: the half-inhibitory concentration (IC50) was less than 1000 nM.

Regarding `CCOc1cc(Nc2nc(-c3c(F)cccc3Cl)nc3ccnn23)ccc1C1CCN(C)CC1` [Example #17, 2-(2-chloro-6-fluorophenyl)-N-(3-ethoxy-4-(1-methylpiperidin-4-yl)phenyl)pyrazolo[1,5-a][1,3,5]triazin-4-amine], the IC50 was less than 1000 nM.

Regarding `CCOc1cc(Nc2nc(-c3c(F)cccc3F)nc3ccnn23)ccc1C1CCN(C)CC1` [Example #20, 2-(2,6-difluorophenyl)-N-(3-ethoxy-4-(1-methylpiperidin-4-yl)phenyl)pyrazolo[1,5-a][1,3,5]triazin-4-amine], the IC50 is less than 1000 nM.

`O=C(NCC(F)(F)F)c1ccc(Nc2nc(-c3c(F)cccc3Cl)nc3ccnn23)cc1` [Example #22, 4-((2-(2-chloro-6-fluorophenyl)pyrazolo[1,5-a][1,3,5]triazin-4-yl)amino)-N-(2,2,2-trifluoroethyl)benzamide] had a half-maximal inhibitory concentration (IC50) of less than 1000 nM.

Regarding `CC(C)(C)NC(=O)c1ccc(Nc2nc(-c3c(F)cccc3Cl)nc3ccnn23)cc1` [Example #23, N-(tert-butyl)-4-((2-(2-chloro-6-fluorophenyl)pyrazolo[1,5-a][1,3,5]triazin-4-yl)amino)benzamide], the IC50 is less than 1000 nM.

`CCNC(=O)c1ccc(Nc2nc(-c3c(F)cccc3Cl)nc3ccnn23)cc1` [Example #24, 4-((2-(2-chloro-6-fluorophenyl)pyrazolo[1,5-a][1,3,5]triazin-4-yl)amino)-N-ethylbenzamide]: the concentration for half-maximal inhibition (IC50) is less than 1000 nM.

`O=C(NC1CCOCC1)c1ccc(Nc2nc(-c3c(F)cccc3Cl)nc3ccnn23)cc1` [Example #25, 4-((2-(2-chloro-6-fluorophenyl)pyrazolo[1,5-a][1,3,5]triazin-4-yl)amino)-N-(tetrahydro-2H-pyran-4-yl)benzamide] showed an IC50 of less than 1000 nM.

In the case of `O=C(NCC(F)(F)F)c1ccc(Nc2nc(-c3c(F)cccc3F)nc3ccnn23)cc1` [Example #26, 4-((2-(2,6-difluorophenyl)pyrazolo[1,5-a][1,3,5]triazin-4-yl)amino)-N-(2,2,2-trifluoroethyl)benzamide], the IC50 was less than 1000 nM.

In the case of `CC(C)(C)NC(=O)c1ccc(Nc2nc(-c3c(F)cccc3F)nc3ccnn23)cc1` [Example #27, N-(tert-butyl)-4-((2-(2,6-difluorophenyl)pyrazolo[1,5-a][1,3,5]triazin-4-yl)amino)benzamide], the IC50 was less than 1000 nM.

`CCNC(=O)c1ccc(Nc2nc(-c3c(F)cccc3F)nc3ccnn23)cc1` [Example #28, 4-((2-(2,6-difluorophenyl)pyrazolo[1,5-a][1,3,5]triazin-4-yl)amino)-N-ethylbenzamide] showed an IC50 of less than 1000 nM.

The compound `O=C(NC1CCOCC1)c1ccc(Nc2nc(-c3c(F)cccc3F)nc3ccnn23)cc1` [Example #29, 4-((2-(2,6-difluorophenyl)pyrazolo[1,5-a][1,3,5]triazin-4-yl)amino)-N-(tetrahydro-2H-pyran-4-yl)benzamide] displayed an IC50 of less than 1000 nM.

On to `CCOc1cc(Nc2nc(-c3c(F)cccc3Cl)nc3ccnn23)ccc1N1CCN(C)CC1` [Example #32, 2-(2-chloro-6-fluorophenyl)-N-(3-ethoxy-4-(4-methylpiperazin-1-yl)phenyl)pyrazolo[1,5-a][1,3,5]triazin-4-amine], for which the half-maximal inhibitory concentration (IC50) was less than 1000 nM.

The compound `CCOc1cc(Nc2nc(-c3c(F)cccc3Cl)nc3ccnn23)ccc1C1=CCN(C2CC2)CC1` [Example #34, 2-(2-chloro-6-fluorophenyl)-N-(4-(1-cyclopropyl-1,2,3,6-tetrahydropyridin-4-yl)-3-ethoxyphenyl)pyrazolo[1,5-a][1,3,5]triazin-4-amine] had an IC50 of less than 1000 nM.

As for `CC(C)(C#N)n1cc(Nc2nc(-c3c(F)cccc3Cl)nc3ccnn23)cn1` [Example #36, 2-(4-((2-(2-chloro-6-fluorophenyl)pyrazolo[1,5-a][1,3,5]triazin-4-yl)amino)-1H-pyrazol-1-yl)-2-methylpropanenitrile], the IC50 is less than 1000 nM.

As to `Fc1cccc(F)c1-c1nc(Nc2ccc(N3CCOCC3)cc2)n2nccc2n1` [Example #37, 2-(2,6-difluorophenyl)-N-(4-morpholinophenyl)pyrazolo[1,5-a][1,3,5]triazin-4-amine], the concentration for half-maximal inhibition (IC50) was less than 1000 nM.

In turn, `CN1CCN(c2ccc(Nc3nc(-c4c(F)cccc4F)nc4ccnn34)cc2)CC1` [Example #38, 2-(2,6-difluorophenyl)-N-(4-(4-methylpiperazin-1-yl)phenyl)pyrazolo[1,5-a][1,3,5]triazin-4-amine] gave an IC50 of less than 1000 nM.

The compound `CC(=O)N1CCN(c2ccc(Nc3nc(-c4c(F)cccc4F)nc4ccnn34)cc2)CC1` [Example #39, 1-(4-(4-((2-(2,6-difluorophenyl)pyrazolo[1,5-a][1,3,5]triazin-4-yl)amino)phenyl)piperazin-1-yl)ethan-1-one] gave a 50% inhibitory concentration (IC50) of less than 1000 nM.

In turn, `N#Cc1cc(Nc2nc(-c3c(F)cccc3F)nc3ccnn23)ccc1N1CCOCC1` [Example #42, 5-((2-(2,6-difluorophenyl)pyrazolo[1,5-a][1,3,5]triazin-4-yl)amino)-2-morpholinobenzonitrile] came in with an IC50 of less than 1000 nM.

The compound `Fc1cccc(F)c1-c1nc(Nc2ccc(N3CCC(N4CCOCC4)CC3)cc2)n2nccc2n1` [Example #43, 2-(2,6-difluorophenyl)-N-(4-(4-morpholinopiperidin-1-yl)phenyl)pyrazolo[1,5-a][1,3,5]triazin-4-amine] returned a half-maximal inhibitory concentration (IC50) of less than 1000 nM.

`CC(C)(C)N1CCN(c2ccc(Nc3nc(-c4c(F)cccc4F)nc4ccnn34)cc2)CC1` [Example #45, N-(4-(4-(tert-butyl)piperazin-1-yl)phenyl)-2-(2,6-difluorophenyl)pyrazolo[1,5-a][1,3,5]triazin-4-amine] gave a half-inhibitory concentration (IC50) of less than 200 nM.

`CN1CCN(C2CCN(c3ccc(Nc4nc(-c5c(F)cccc5F)nc5ccnn45)cc3)CC2)CC1` [Example #46, 2-(2,6-difluorophenyl)-N-(4-(4-(4-methylpiperazin-1-yl)piperidin-1-yl)phenyl)pyrazolo[1,5-a][1,3,5]triazin-4-amine] displayed a half-maximal inhibitory concentration (IC50) of less than 1000 nM.

For `CC(C)(C)N1CCN(c2ccc(Nc3nc(-c4ccccc4F)nc4ccnn34)cc2)CC1` [Example #54, N-(4-(4-(tert-butyl)piperazin-1-yl)phenyl)-2-(2-fluorophenyl)pyrazolo[1,5-a][1,3,5]triazin-4-amine], the half-inhibitory concentration (IC50) is less than 1000 nM.

`CN1CCN(C2CCN(c3ccc(Nc4nc(-c5ccccc5F)nc5ccnn45)cc3)CC2)CC1` [Example #59, 2-(2-fluorophenyl)-N-(4-(4-(4-methylpiperazin-1-yl)piperidin-1-yl)phenyl)pyrazolo[1,5-a][1,3,5]triazin-4-amine] gave a 50% inhibitory concentration (IC50) of less than 1000 nM.

The compound `COc1cc(Nc2nc(-c3c(F)cccc3F)nc3ccnn23)ccc1N1CCC(N2CCN(C)CC2)CC1` [Example #62, 2-(2,6-difluorophenyl)-N-(3-methoxy-4-(4-(4-methylpiperazin-1-yl)piperidin-1-yl)phenyl)pyrazolo[1,5-a][1,3,5]triazin-4-amine] had an IC50 of less than 1000 nM.

The compound `COc1ccc(Nc2nc(-c3c(F)cccc3F)nc3ccnn23)cc1OC` [Example #65, 2-(2,6-difluorophenyl)-N-(3,4-dimethoxyphenyl)pyrazolo[1,5-a][1,3,5]triazin-4-amine] yielded an IC50 of less than 1000 nM.

The compound `CN1CCC(N2CCC(n3cc(Nc4nc(-c5c(F)cccc5F)nc5ccnn45)cn3)CC2)CC1` [Example #66, 2-(2,6-difluorophenyl)-N-(1-(1′-methyl-[1,4′-bipiperidin]-4-yl)-1H-pyrazol-4-yl)pyrazolo[1,5-a][1,3,5]triazin-4-amine] showed a concentration for half-maximal inhibition (IC50) of less than 200 nM.

The compound `Fc1cccc(F)c1-c1nc(Nc2cnn(C3CCN(C4CCOCC4)CC3)c2)n2nccc2n1` [Example #67, 2-(2,6-difluorophenyl)-N-(1-(1-(tetrahydro-2H-pyran-4-yl)piperidin-4-yl)-1H-pyrazol-4-yl)pyrazolo[1,5-a][1,3,5]triazin-4-amine] displayed an IC50 of less than 200 nM.

(Values after patent US20250019382A1, “NOVEL INHIBITORS OF CYCLIN-DEPENDENT KINASES” (Origenis Gmbh, priority 2021, published 2025).)
